For 21 compounds, IC50 results are on record in US20230022157A1 (Achillion Pharmaceuticals, Inc., priority 2018, published 2023).

Where two headings read alike, the source gives them in different places. Bounds are passed on as bounds.

One may read the IC50 as the midpoint of a concentration-inhibition curve.

The experiment addresses T1, Human Factor D (Homo sapiens, UniProt P00746).
T1 construct: purified from human serum; purchased Complement Technology, Inc; host or cells: human serum (natural protein, not recombinant)
The experiment is described as follows: Human Factor D Assay. It is filed as biochemical. In a few lines:
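Serum-purified human factor D (80 nM final) preincubated 5 min at room temperature with test compound in 50 mM Tris, 1M NaCl, pH 7.5. Z-L-Lys-SBzl substrate and DTNB then added, each at 100 μM final. IC50 from nonlinear regression of reaction rate against compound concentration.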

The mark [1] stands for this setting: Human Factor D 80 nM, substrate Z-L-Lys-SBzl, Table 2, read-out: IC50 (Stars).
The mark [2] stands for this setting: Human Factor D 80 nM, substrate Z-L-Lys-SBzl, assay of Example 3, read-out: IC50 (Stars).

T1 sequence (P00746 26-253): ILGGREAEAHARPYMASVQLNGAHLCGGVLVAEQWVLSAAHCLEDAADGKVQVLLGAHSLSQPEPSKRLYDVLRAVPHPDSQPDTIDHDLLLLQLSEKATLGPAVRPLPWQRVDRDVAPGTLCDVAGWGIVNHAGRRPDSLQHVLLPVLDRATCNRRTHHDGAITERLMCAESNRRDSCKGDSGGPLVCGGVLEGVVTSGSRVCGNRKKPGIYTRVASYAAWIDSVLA

Turning to `CC(=O)c1nn(CC(=O)N2[C@H](C(=O)Nc3nc(Br)c(F)cc3C)C[C@@]3(C)C[C@@H]23)c2c(C)cc(-c3cnc(C(=O)O)nc3)cc12` [Compound 45, 5-(3-acetyl-1-(2-((1R,3S,5R)-3-((6-bromo-5-fluoro-3-methylpyridin-2-yl)carbamoyl)-5-methyl-2-azabicyclo[3.1.0]hexan-2-yl)-2-oxoethyl)-7-methyl-1H-indazol-5-yl)pyrimidine-2-carboxylic acid], the IC50 under setting [1] is less than 1000 nM.

Regarding `CC(=O)c1nn(CC(=O)N2[C@H](C(=O)Nc3nc(Br)ccc3C)C[C@@]3(C)C[C@@H]23)c2c(C)cc(-c3cnc(C(=O)O)nc3)cc12` [Compound 39, 5-(3-acetyl-1-(2-((1R,3S,5R)-3-((6-bromo-3-methylpyridin-2-yl)carbamoyl)-5-methyl-2-azabicyclo[3.1.0]hexan-2-yl)-2-oxoethyl)-7-methyl-1H-indazol-5-yl)pyrimidine-2-carboxylic acid], under setting [2], the IC50 was less than 1000 nM.

As for `CC(=O)c1cn(CC(=O)N2[C@H](C(=O)Nc3nc(C(F)(F)F)ccc3Cl)C[C@@]3(C)C[C@@H]23)c2c(C)cc(-c3cnc(C)nc3)cc12` [Compound 233, (1R,3S,5R)-2-(2-(3-acetyl-7-methyl-5-(2-methylpyrimidin-5-yl)-1H-indol-1-yl)acetyl)-N-(3-chloro-6-(trifluoromethyl)pyridin-2-yl)-5-methyl-2-azabicyclo[3.1.0]hexane-3-carboxamide], the IC50 under setting [1] is less than 1000 nM.

As for `CC(=O)c1nn(CC(=O)N2C[C@H]3C[C@H]3[C@H]2C(=O)Nc2nc(Br)ccc2Cl)c2c(C)cc(-c3cnc(C(C)O)nc3)cc12` (stereo partly drawn) [Compound 166], the 50% inhibitory concentration (IC50) under setting [1] is less than 1000 nM.

As for `CC(=O)c1nn(CC(=O)N2[C@H](C(=O)Nc3nc(OC(F)(F)F)ccc3C)C[C@@]3(C)C[C@@H]23)c2c(C)cc(-c3cnc(CO)nc3)cc12` [Compound 55, (1R,3S,5R)-2-(2-(3-acetyl-5-(2-(hydroxymethyl)pyrimidin-5-yl)-7-methyl-1H-indazol-1-yl)acetyl)-5-methyl-N-(3-methyl-6-(trifluoromethoxy)pyridin-2-yl)-2-azabicyclo[3.1.0]hexane-3-carboxamide], the IC50 under setting [1] is less than 1000 nM.

Turning to `CC(=O)c1nn(CC(=O)N2[C@H](C(=O)N[C@@H](C)c3ccc4c(c3)CCCC4)C[C@@]3(C)C[C@@H]23)c2c(C)cc(-c3cnc(C)nc3)cc12` [Compound 151, (1R,3S,5R)-2-{2-[3-acetyl-7-methyl-5-(2-methylpyrimidin-5-yl)indazol-1-yl]acetyl}-5-methyl-N-[(1S)-1-(5,6,7,8-tetrahydronaphthalen-2-yl)ethyl]-2-azabicyclo[3.1.0]hexane-3-carboxamide], the IC50 under setting [1] is 1000 to 10000 nM.

As to `CC(=O)c1nn(CC(=O)N2[C@H](C(=O)Nc3nc(Br)ccc3C)C[C@@]3(C)C[C@@H]23)c2c(C)cc(-c3cnc(C(C)O)nc3)cc12` (stereo partly drawn) [Compound 95, (1R,3S,5R)-2-(2-(3-acetyl-5-(2-(1-hydroxyethyl)pyrimidin-5-yl)-7-methyl-1H-indazol-1-yl)acetyl)-N-(6-bromo-3-methylpyridin-2-yl)-5-methyl-2-azabicyclo[3.1.0]hexane-3-carboxamide], under setting [1], the IC50 is less than 1000 nM.

For the compound `CC(=O)c1nn(CC(=O)N2[C@H](C(=O)NCCc3ccc(F)cc3)C[C@@]3(C)C[C@@H]23)c2c(C)cc(-c3cnc(C)nc3)cc12` [Compound 2, (1R,3S,5R)-2-(2-(3-Acetyl-7-methyl-5-(2-methylpyrimidin-5-yl)-1H-indazol-1-yl)acetyl)-N-(4-fluorophenethyl)-5-methyl-2-azabicyclo[3.1.0]hexane-3-carboxamide], the half-inhibitory concentration (IC50) under setting [2] was less than 1000 nM.

`CC(=O)c1nn(CC(=O)N2C[C@H]3C[C@H]3[C@H]2C(=O)Nc2cncc(Br)n2)c2c(C)cc(-c3cnc(CO)nc3)cc12` [Compound 74, (1R,2S,5S)-3-(2-(3-acetyl-5-(2-(hydroxymethyl)pyrimidin-5-yl)-7-methyl-11H-indazol-1-yl)acetyl)-N-(6-bromopyrazin-2-yl)-3-azabicyclo[3.1.0]hexane-2-carboxamide]: the half-maximal inhibitory concentration (IC50) under setting [1] was less than 1000 nM.

Consider `CC(=O)c1nn(CC(=O)N2C[C@H](F)C[C@H]2C(=O)Nc2cccc(Br)n2)c2c(C)cc(-c3cnc(C(C)O)nc3)cc12` (stereo partly drawn) [Compound 179, (2S,4R)-1-(2-(3-acetyl-5-(2-(1-hydroxyethyl)pyrimidin-5-yl)-7-methyl-1H-indazol-1-yl)acetyl)-N-(6-bromopyridin-2-yl)-4-fluoropyrrolidine-2-carboxamide], for which the IC50 under setting [1] was less than 1000 nM.

Take `Cc1ncc(-c2cc(C)c3c(c2)c(C(C)O)cn3CC(=O)N2[C@H](C(=O)Nc3nc(Br)ccc3C)C[C@@]3(C)C[C@@H]23)cn1` (stereo partly drawn) [Compound 191, (1R,3S,5R)—N-(6-bromo-3-methylpyridin-2-yl)-2-(2-(3-(1-hydroxyethyl)-7-methyl-5-(2-methylpyrimidin-5-yl)-1H-indol-1-yl)acetyl)-5-methyl-2-azabicyclo[3.1.0]hexane-3-carboxamide]: under setting [1], the IC50 is less than 1000 nM.

Turning to `CC(=O)c1nn(CC(=O)N2[C@H](C(=O)Nc3nc(Br)ccc3C)C[C@@]3(C)C[C@@H]23)c2ccc(-c3cnc(CO)nc3)cc12` [Compound 30, (1R,3S,5R)-2-(2-(3-acetyl-5-(2-(hydroxymethyl)pyrimidin-5-yl)-1H-indazol-1-yl)acetyl)-N-(6-bromo-3-methylpyridin-2-yl)-5-methyl-2-azabicyclo[3.1.0]hexane-3-carboxamide], under setting [2], the IC50 was less than 1000 nM.

In the case of `CC(=O)c1nn(CC(=O)N2[C@H](C(=O)Nc3nc(C(C)(F)F)ccc3C)C[C@@]3(C)C[C@@H]23)c2c(C)cc(-c3cnc(C)nc3)cc12` [Compound 130, (1R,3S,5R)-2-(2-(3-Acetyl-7-methyl-5-(2-methylpyrimidin-5-yl)-1H-indazol-1-yl)acetyl)-N-(6-(1,1-difluoroethyl)-3-methylpyridin-2-yl)-5-methyl-2-azabicyclo[3.1.0]hexane-3-carboxamide], the concentration for half-maximal inhibition (IC50) under setting [1] is less than 1000 nM.

Turning to `CC(=O)c1cn(CC(=O)N2[C@H](C(=O)Nc3nc(C(F)(F)F)ccc3C)C[C@@]3(CF)C[C@@H]23)c2c(C)cc(-c3cnc(C)nc3)cc12` [Compound 234, (1R,3S,5S)-2-(2-(3-acetyl-7-methyl-5-(2-methylpyrimidin-5-yl)-1H-indol-1-yl)acetyl)-5-(fluoromethyl)-N-(3-methyl-6-(trifluoromethyl)pyridin-2-yl)-2-azabicyclo[3.1.0]hexane-3-carboxamide], the half-maximal inhibitory concentration (IC50) under setting [1] was less than 1000 nM.

On to `CC(=O)c1nn(CC(=O)N2[C@H](C(=O)Nc3nc(Br)ccc3C)C[C@@]3(CNC(=O)COCCOCCNC(=O)COCCOCCNC(=O)CC[C@H](NC(=O)CCCCCCCCCCCCCCCCC(=O)O)C(=O)O)C[C@@H]23)c2ccc(OC(=O)NC3CC3)cc12` [Compound 15, (S)-1-((1R,3S,5R)-2-(2-(3-acetyl-5-((cyclopropylcarbamoyl)oxy)-1H-indazol-1-yl)acetyl)-3-((6-bromo-3-methylpyridin-2-yl)carbamoyl)-2-azabicyclo[3.1.0]hexan-5-yl)-24-carboxy-3,12,21,26-tetraoxo-5,8,14,17-tetraoxa-2,11,20,25-tetraazatritetracontan-43-oic acid], for which the 50% inhibitory concentration (IC50) was less than 1000 nM.

For the compound `CC(=O)c1nn(CC(=O)N2C[C@H]3C[C@H]3[C@H]2C(=O)Nc2nc(Br)ccc2C)c2c(C)cc(-c3cnc(CO)nc3)cc12` [Compound 61, (1R,2S,5S)-3-(2-(3-acetyl-5-(2-(hydroxymethyl)pyrimidin-5-yl)-7-methyl-11H-indazol-1-yl)acetyl)-N-(6-bromo-3-methylpyridin-2-yl)-3-azabicyclo[3.1.0]hexane-2-carboxamide], the IC50 under setting [1] was less than 1000 nM.

As to `CC(=O)c1nn(CC(=O)N2[C@H](C(=O)Nc3nc(Br)ccc3C)C[C@@]3(C)C[C@@H]23)c2c(C)cc(-c3cnc([C@@H](C)O)nc3)cc12` (single isomer, unassigned) [Compound 142], the IC50 under setting [1] is less than 1000 nM.

Turning to `CC(=O)c1nn(CC(=O)N2[C@H](C(=O)NCCc3cc[nH]n3)C[C@@]3(C)C[C@@H]23)c2c(C)cc(-c3cnc(C)nc3)cc12` [Compound 106, (1R,3S,5R)-2-{2-[3-acetyl-7-methyl-5-(2-methylpyrimidin-5-yl)indazol-1-yl]acetyl}-5-methyl-N-[2-(1H-pyrazol-3-yl)ethyl]-2-azabicyclo[3.1.0]hexane-3-carboxamide], the IC50 under setting [1] is less than 1000 nM.

As to `CC(=O)c1nn(CC(=O)N2[C@H]3CC[C@H](C3)[C@H]2C(=O)Nc2nc(C(F)(F)F)ccc2C)c2c(C)cc(-c3cnc(C(C)O)nc3)cc12` (stereo partly drawn) [Compound 171, (1S,3S,4R)-2-(2-(3-acetyl-5-(2-(1-hydroxyethyl)pyrimidin-5-yl)-7-methyl-1H-indazol-1-yl)acetyl)-N-(3-methyl-6-(trifluoromethyl)pyridin-2-yl)-2-azabicyclo[2.2.1]heptane-3-carboxamide], the IC50 under setting [1] is less than 1000 nM.

Turning to `CC(=O)c1nn(CC(=O)N2[C@H]3CC[C@H](C3)[C@H]2C(=O)Nc2nc(Br)c(F)cc2C)c2c(C)cc(-c3cnc(C)nc3)cc12` [Compound 101, (1S,3S,4R)-2-(2-(3-Acetyl-7-methyl-5-(2-methylpyrimidin-5-yl)-1H-indazol-1-yl)acetyl)-N-(6-bromo-5-fluoro-3-methylpyridin-2-yl)-2-azabicyclo[2.2.1]heptane-3-carboxamide], the IC50 under setting [1] was less than 1000 nM.

On to `CC(=O)c1nn(CC(=O)N2[C@H](C(=O)Nc3nc(Br)ccc3C)C[C@@]3(C)C[C@@H]23)c2c(C)cc(-c3ccc(CO)nc3)cc12` [Compound 82, (1R,3S,5R)-2-(2-(3-acetyl-5-(6-(hydroxymethyl)pyridin-3-yl)-7-methyl-1H-indazol-1-yl)acetyl)-N-(6-bromo-3-methylpyridin-2-yl)-5-methyl-2-azabicyclo[3.1.0]hexane-3-carboxamide], for which the half-maximal inhibitory concentration (IC50) under setting [1] is less than 1000 nM.
